Results as given in patent publication US10736932B2, “Small molecule Ras inhibitors” (Ohio State Innovation Foundation, priority 2014, dated 2020).
Square brackets hold non-standard residues; d marks the D form. Side chains are listed from the residue outwards. Peptide text beside a SMILES is read from it. * marks the point of attachment. FITC = O=C1OC2(c3ccc(O)cc3Oc3cc(O)ccc32)c2ccc(NC(=S)*)cc21; Phe(3,4-F2) = N[C@@H](Cc1ccc(F)c(F)c1)C(=O)O; Phe(4-Cl) = N[C@@H](Cc1ccc(Cl)cc1)C(=O)O; Phe(4-F) = N[C@@H](Cc1ccc(F)cc1)C(=O)O; d2Nal = N[C@H](Cc1ccc2ccccc2c1)C(=O)O; Benzoyl(3-Br) = O=C(c1cccc(Br)c1)*; Tle = CC(C)(C)[C@H](N)C(=O)O; X2 = O=C(C=Cc1ccc(Cl)cc1)*; X5 = O=C(c1cc(F)cc(Br)c1)*; dNle = CCCC[C@@H](N)C(=O)O; Dap = NC[C@H](N)C(=O)O

Each compound was assayed against T1, K-Ras / Raf RBD interaction (Homo sapiens, UniProt P01116, G12V) (assay: HTRF assay, inhibition of Ras-Raf RBD interaction). Details: not given.
T1 construct: The G12V mutant K-Ras (amino acids 1-185) was recombinantly fused; GST (N, cleaved yes); made in house; host or cells: Escherichia coli BL21
Assay type: binding
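For IC50 in this document: HTRF signal read after overnight incubation of the assay plate at 4 °C.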
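For increase in Ras binding affinity upon residue substitution in this document: HTRF signal read after overnight incubation of the assay plate at 4 °C.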

`CCCC[C@H]1NC(=O)[C@H](Cc2ccc(F)cc2)NC(=O)[C@H](C)NC(=O)[C@@H](Cc2ccc3ccccc3c2)NC(=O)[C@H](CCCNC(=N)N)NC(=O)[C@H](CCCNC(=N)N)NC(=O)[C@H](CCC(=O)N[C@@H](CCCCN)C(N)=O)NC(=O)[C@@H](C)NC(=O)[C@H]([C@@H](C)O)NC(=O)[C@H](Cc2c[nH]c3ccccc23)NC(=O)[C@@H](CO)NC1=O` [Cyclorasin 9A(Arg4A), (Arg-Arg-nal-Ala-Fpa-nle-ser-Trp-Thr-ala-Gln)-Lys] (cyclo(RR[d2Nal]A[Phe(4-F)][dNle][dS]WT[dA]E([Lys-NH2]))) and `CCCC[C@H]1NC(=O)[C@H](Cc2ccc(F)cc2)NC(=O)[C@H](CCCNC(=N)N)NC(=O)[C@@H](Cc2ccc3ccccc3c2)NC(=O)[C@H](C)NC(=O)[C@H](CCCNC(=N)N)NC(=O)[C@H](CCC(=O)N[C@@H](CCCCN)C(N)=O)NC(=O)[C@@H](C)NC(=O)[C@H]([C@@H](C)O)NC(=O)[C@H](Cc2c[nH]c3ccccc23)NC(=O)[C@@H](CO)NC1=O` [Cyclorasin 9A(Arg2A), (Arg-Ala-nal-Arg-Fpa-nle-ser-Trp-Thr-ala-Gln)-Lys] (cyclo(RA[d2Nal]R[Phe(4-F)][dNle][dS]WT[dA]E([Lys-NH2]))) are within error of each other in IC50: 390 ± 280 nM for the first, 940 ± 290 nM for the second.

Going from `CCCC[C@H]1NC(=O)[C@H](Cc2ccc(F)cc2)NC(=O)[C@H](CCCNC(=N)N)NC(=O)[C@@H](Cc2ccc3ccccc3c2)NC(=O)[C@H](CCCNC(=N)N)NC(=O)[C@H](CCCNC(=N)N)NC(=O)[C@H](CCC(=O)N[C@@H](CCCCN)C(N)=O)NC(=O)[C@@H](C)NC(=O)[C@H]([C@@H](C)O)NC(=O)[C@H](C)NC(=O)[C@@H](CO)NC1=O` [Cyclorasin 9A(Trp8A), (Arg-Arg-nal-Arg-Fpa-nle-ser-Ala-Thr-ala-Gln)-Lys] (cyclo(RR[d2Nal]R[Phe(4-F)][dNle][dS]AT[dA]E([Lys-NH2]))) to `CCCC[C@H]1NC(=O)[C@H](C)NC(=O)[C@H](CCCNC(=N)N)NC(=O)[C@@H](Cc2ccc3ccccc3c2)NC(=O)[C@H](CCCNC(=N)N)NC(=O)[C@H](CCCNC(=N)N)NC(=O)[C@H](CCC(=O)N[C@@H](CCCCN)C(N)=O)NC(=O)[C@@H](C)NC(=O)[C@H]([C@@H](C)O)NC(=O)[C@H](Cc2c[nH]c3ccccc23)NC(=O)[C@@H](CO)NC1=O` [Cyclorasin 9A(Fpa5A), (Arg-Arg-nal-Arg-Ala-nle-ser-Trp-Thr-ala-Gln)-Lys] (cyclo(RR[d2Nal]RA[dNle][dS]WT[dA]E([Lys-NH2]))), the IC50 rises from 7200 ± 1000 nM to greater than 10000 nM.

`CCCC[C@H]1NC(=O)[C@H](Cc2ccc(F)cc2)NC(=O)[C@H](CCCNC(=N)N)NC(=O)[C@@H](Cc2ccc3ccccc3c2)NC(=O)[C@H](CCCNC(=N)N)NC(=O)[C@H](CCCNC(=N)N)NC(=O)[C@H](CCCNC(=N)N)NC(=O)[C@@H](C)NC(=O)[C@H](C(C)(C)C)NC(=O)[C@H](Cc2c[nH]c3ccccc23)NC(=O)[C@H](CCC(N)=O)NC1=O` [Cyclorasin 9A46, (Trp-Tle-ala-Arg-Arg-Arg-nal-Arg-Fpa-nle-Gln)] (cyclo(W[Tle][dA]RRR[d2Nal]R[Phe(4-F)][dNle]Q)) and `CCCC[C@H]1NC(=O)[C@H](Cc2ccc(F)cc2)NC(=O)[C@H](CCCNC(=N)N)NC(=O)[C@@H](Cc2ccc3ccccc3c2)NC(=O)[C@H](CCCNC(=N)N)NC(=O)[C@H](CCCNC(=N)N)NC(=O)[C@@H](CCCNC(=N)N)NC(=O)[C@@H](C)NC(=O)[C@H](C(C)(C)C)NC(=O)[C@H](Cc2c[nH]c3ccccc23)NC(=O)[C@H](CCC(N)=O)NC1=O` [Cyclorasin 9A16, (Trp-Tle-ala-arg-Arg-Arg-nal-Arg-Fpa-nle-Gln)] (cyclo(W[Tle][dA][dR]RR[d2Nal]R[Phe(4-F)][dNle]Q)) are within error of each other in IC50: 130 ± 20 nM for the first, 110 ± 10 nM for the second.

First: C[C@H]1NC(=O)[C@H](Cc2ccc(F)cc2)NC(=O)[C@H](CCCNC(=N)N)NC(=O)[C@@H](Cc2ccc3ccccc3c2)NC(=O)[C@H](CCCNC(=N)N)NC(=O)[C@H](CCCNC(=N)N)NC(=O)[C@H](CCC(=O)N[C@@H](CCCCN)C(N)=O)NC(=O)[C@@H](C)NC(=O)[C@H]([C@@H](C)O)NC(=O)[C@H](Cc2c[nH]c3ccccc23)NC(=O)[C@@H](CO)NC1=O [Cyclorasin 9A(nle6dA), (Arg-Arg-nal-Arg-Fpa-ala-ser-Trp-Thr-ala-Gln)-Lys] (cyclo(RR[d2Nal]R[Phe(4-F)][dA][dS]WT[dA]E([Lys-NH2])))
Second: CCCC[C@H]1NC(=O)[C@H](Cc2ccc(F)cc2)NC(=O)[C@H](CCCNC(=N)N)NC(=O)[C@@H](Cc2ccc3ccccc3c2)NC(=O)[C@H](CCCNC(=N)N)NC(=O)[C@H](CCCNC(=N)N)NC(=O)[C@H](CCC(=O)N[C@@H](CCCCN)C(N)=O)NC(=O)[C@@H](C)NC(=O)[C@H]([C@@H](C)O)NC(=O)[C@H](Cc2c[nH]c3ccccc23)NC(=O)[C@@H](C)NC1=O [Cyclorasin 9A(ser7dA), (Arg-Arg-nal-Arg-Fpa-nle-ala-Trp-Thr-ala-Gln)-Lys] (cyclo(RR[d2Nal]R[Phe(4-F)][dNle][dA]WT[dA]E([Lys-NH2])))
The IC50 of the first is 10-fold higher: 7700 ± 5600 nM for the first, 770 ± 490 nM for the second. The second is the more potent here.

Compared with `CCCC[C@H]1NC(=O)[C@H](Cc2ccc(F)c(F)c2)NC(=O)[C@H](CCCNC(=N)N)NC(=O)[C@@H](Cc2ccc3ccccc3c2)NC(=O)[C@H](CCCNC(=N)N)NC(=O)[C@H](CCCNC(=N)N)NC(=O)[C@H](CCCNC(=N)N)NC(=O)[C@@H](C(C)C)NC(=O)[C@H](C(C)(C)C)NC(=O)[C@H](Cc2c[nH]c3ccccc23)NC(=O)[C@H](CCC(N)=O)NC1=O` [Cyclorasin 9A54, (Trp-Tle-val-Arg-Arg-Arg-nal-Arg-Phe(3,4-difluoro)-nle-Gln)] (cyclo(W[Tle][dV]RRR[d2Nal]R[Phe(3,4-F2)][dNle]Q)), `CCCC[C@H]1NC(=O)[C@H](Cc2ccc(F)cc2)NC(=O)[C@H](CCCNC(=N)N)NC(=O)[C@@H](Cc2ccc3ccccc3c2)NC(=O)[C@H](CCCNC(=N)N)NC(=O)[C@H](CCCNC(=N)N)NC(=O)[C@@H](CCCNC(=N)N)NC(=O)[C@@H](C)NC(=O)[C@H](C(C)C)NC(=O)[C@H](Cc2c[nH]c3ccccc23)NC(=O)[C@H](CCC(N)=O)NC1=O` [Cyclorasin 9A18, (Trp-Val-ala-arg-Arg-Arg-nal-Arg-Fpa-nle-Gln)] (cyclo(WV[dA][dR]RR[d2Nal]R[Phe(4-F)][dNle]Q)) is 13-fold higher in IC50: 18 nM for the first, 230 ± 110 nM for the second.

Compared with `CCCC[C@H]1NC(=O)[C@H](Cc2ccc(Cl)cc2)NC(=O)[C@H](CCCNC(=N)N)NC(=O)[C@@H](Cc2ccc3ccccc3c2)NC(=O)[C@H](CCCNC(=N)N)NC(=O)[C@H](CCCNC(=N)N)NC(=O)[C@H](CCCNC(=N)N)NC(=O)[C@@H](C)NC(=O)[C@H]([C@@H](C)O)NC(=O)[C@H](Cc2c[nH]c3ccccc23)NC(=O)[C@H](CCC(N)=O)NC1=O` [Cyclorasin 9A42, (Trp-Thr-ala-Arg-Arg-Arg-nal-Arg-Phe(4-chloro)-nle-Gln)] (cyclo(WT[dA]RRR[d2Nal]R[Phe(4-Cl)][dNle]Q)), `CC(C)[C@H]1NC(=O)[C@H](Cc2ccc(F)cc2)NC(=O)[C@H](CCCNC(=N)N)NC(=O)[C@@H](Cc2ccc3ccccc3c2)NC(=O)[C@H](CCCNC(=N)N)NC(=O)[C@H](CCCNC(=N)N)NC(=O)[C@@H](CCCNC(=N)N)NC(=O)[C@@H](C)NC(=O)[C@H]([C@@H](C)O)NC(=O)[C@H](Cc2c[nH]c3ccccc23)NC(=O)[C@H](CCC(N)=O)NC1=O` [Cyclorasin 9A11, (Trp-Thr-ala-arg-Arg-Arg-nal-Arg-Fpa-val-Gln)] (cyclo(WT[dA][dR]RR[d2Nal]R[Phe(4-F)][dV]Q)) is 2.4-fold higher in IC50: 130 ± 20 nM for the first, 310 ± 80 nM for the second. The first is the more potent here.

Same assay, conditions: relative to parent 9A5/9A6

With `CCCC[C@H]1NC(=O)[C@H](Cc2ccc(F)cc2)NC(=O)[C@H](CCCNC(=N)N)NC(=O)[C@@H](Cc2ccc3ccccc3c2)NC(=O)[C@H](CCCNC(=N)N)NC(=O)[C@H](CCCNC(=N)N)NC(=O)[C@@H](CCCNC(=N)N)NC(=O)[C@@H](C)NC(=O)[C@H](C(C)(C)C)NC(=O)[C@H](Cc2c[nH]c3ccccc23)NC(=O)[C@H](CCC(N)=O)NC1=O` [Cyclorasin 9A16, (Trp-Tle-ala-arg-Arg-Arg-nal-Arg-Fpa-nle-Gln)] (cyclo(W[Tle][dA][dR]RR[d2Nal]R[Phe(4-F)][dNle]Q)) the “increase in Ras binding affinity upon residue substitution” value was roughly 2 fold.

Each compound was assayed against T2, K-Ras(G12V) (Homo sapiens, UniProt P01116, G12V) (assay: Fluorescence anisotropy (FA) binding of FITC-labeled cyclic peptides to K-Ras). Details: Table 2; FITC-labeled peptide; read-out: Binding affinity KD.
T2 construct: The G12V mutant K-Ras (amino acids 1-185) was recombinantly fused; GST (N, cleaved yes); made in house; host or cells: Escherichia coli BL21

Going from `C[C@H]1NC(=O)[C@H](C(C)(C)C)NC(=O)[C@H](CNC(=O)c2cc(F)cc(Br)c2)NC(=O)[C@H](CCC(N)=O)NC(=O)[C@@H](CCCCN)NC(=O)[C@H](Cc2ccc(F)cc2)NC(=O)[C@H](CCCNC(=N)N)NC(=O)[C@@H](Cc2ccc3ccccc3c2)NC(=O)[C@H](CCCCNC(=S)Nc2ccc3c(c2)C(=O)OC32c3ccc(O)cc3Oc3cc(O)ccc32)NC(=O)[C@H](CCCNC(=N)N)NC(=O)[C@H](CCCNC(=N)N)NC1=O` [Cyclorasin 9A25, (Dap(3-bromo-5-fluorobenzoyl)-Tle-ala-Arg-Arg-Lys(FITC)-nal-Arg-Fpa-lys-Gln)] (cyclo([Dap](X5)[Tle][dA]RRK(FITC)[d2Nal]R[Phe(4-F)][dK]Q)) to `C[C@H]1NC(=O)[C@H](C(C)(C)C)NC(=O)[C@H](Cc2c[nH]c3ccccc23)NC(=O)[C@H](CCC(N)=O)NC(=O)[C@@H](CCCCN)NC(=O)[C@H](Cc2ccc(F)cc2)NC(=O)[C@H](CCCNC(=N)N)NC(=O)[C@@H](Cc2ccc3ccccc3c2)NC(=O)[C@H](CCCCNC(=S)Nc2ccc3c(c2)C(=O)OC32c3ccc(O)cc3Oc3cc(O)ccc32)NC(=O)[C@H](CCCNC(=N)N)NC(=O)[C@H](CCCNC(=N)N)NC1=O` [Cyclorasin 9A31, (Trp-Tle-ala-Arg-Arg-Lys(FITC)-nal-Arg-Fpa-lys-Gln)] (cyclo(K(FITC)[d2Nal]R[Phe(4-F)][dK]QW[Tle][dA]RR)), the Kd falls from 470 ± 100 nM to 110 ± 10 nM (4.3-fold). The second binds more tightly here.

`C[C@H]1NC(=O)[C@H](C(C)(C)C)NC(=O)[C@H](Cc2c[nH]c3ccccc23)NC(=O)[C@H](CCC(N)=O)NC(=O)[C@@H](CCCCNC(=O)c2cccc(Br)c2)NC(=O)[C@H](Cc2ccc(F)cc2)NC(=O)[C@H](CCCNC(=N)N)NC(=O)[C@@H](Cc2ccc3ccccc3c2)NC(=O)[C@H](CCCCNC(=S)Nc2ccc3c(c2)C(=O)OC32c3ccc(O)cc3Oc3cc(O)ccc32)NC(=O)[C@H](CCCNC(=N)N)NC(=O)[C@H](CCCNC(=N)N)NC1=O` [Cyclorasin 9A36, (Trp-Tle-ala-Arg-Arg-Lys(FITC)-nal-Arg-Fpa-lys(3-bromobenzoyl)-Gln)] (cyclo(K(FITC)[d2Nal]R[Phe(4-F)][dK](Benzoyl(3-Br))QW[Tle][dA]RR)) and `C[C@H]1NC(=O)[C@H](C(C)(C)C)NC(=O)[C@H](Cc2c[nH]c3ccccc23)NC(=O)[C@H](CCC(N)=O)NC(=O)[C@@H](CCCCNC(=O)C=Cc2ccc(Cl)cc2)NC(=O)[C@H](Cc2ccc(F)cc2)NC(=O)[C@H](CCCNC(=N)N)NC(=O)[C@@H](Cc2ccc3ccccc3c2)NC(=O)[C@H](CCCCNC(=S)Nc2ccc3c(c2)C(=O)OC32c3ccc(O)cc3Oc3cc(O)ccc32)NC(=O)[C@H](CCCNC(=N)N)NC(=O)[C@H](CCCNC(=N)N)NC1=O` [Cyclorasin 9A34, (Trp-Tle-ala-Arg-Arg-Lys(FITC)-nal-Arg-Fpa-lys(4-chlorocinnamoyl)-Gln)] (cyclo(K(FITC)[d2Nal]R[Phe(4-F)][dK](X2)QW[Tle][dA]RR)) cannot be ordered by Kd: greater than 20000 nM for the first, greater than 20000 nM for the second.
